Laboratory results reported in US20260014147A1, “STAT6 DEGRADERS” (Gilead Sciences, Inc., priority 2024, published 2026).

Experiments:
[1] = target: T1, STAT6 (endogenous, HiBiT-tagged) in HeLa LgBiT clone 4.14 cells (Homo sapiens, UniProt P42226); test: STAT6 Degrader Assay (HiBiT based, HeLa LgBiT clone 4.14 cells, luminescence, DC50); type: cell-based; conditions: geometric mean; for DC50: DC50 provided for test compounds with >80% Emax, read-out: STAT6 degradation DC50; for Emax: Emax provided for test compounds with <80% Emax (and 2c15), read-out: STAT6 degradation Emax
T1 construct: These cells express endogenous STAT6; host or cells: HeLa LgBiT clone 4.14
T1 sequence (P42226 1-847): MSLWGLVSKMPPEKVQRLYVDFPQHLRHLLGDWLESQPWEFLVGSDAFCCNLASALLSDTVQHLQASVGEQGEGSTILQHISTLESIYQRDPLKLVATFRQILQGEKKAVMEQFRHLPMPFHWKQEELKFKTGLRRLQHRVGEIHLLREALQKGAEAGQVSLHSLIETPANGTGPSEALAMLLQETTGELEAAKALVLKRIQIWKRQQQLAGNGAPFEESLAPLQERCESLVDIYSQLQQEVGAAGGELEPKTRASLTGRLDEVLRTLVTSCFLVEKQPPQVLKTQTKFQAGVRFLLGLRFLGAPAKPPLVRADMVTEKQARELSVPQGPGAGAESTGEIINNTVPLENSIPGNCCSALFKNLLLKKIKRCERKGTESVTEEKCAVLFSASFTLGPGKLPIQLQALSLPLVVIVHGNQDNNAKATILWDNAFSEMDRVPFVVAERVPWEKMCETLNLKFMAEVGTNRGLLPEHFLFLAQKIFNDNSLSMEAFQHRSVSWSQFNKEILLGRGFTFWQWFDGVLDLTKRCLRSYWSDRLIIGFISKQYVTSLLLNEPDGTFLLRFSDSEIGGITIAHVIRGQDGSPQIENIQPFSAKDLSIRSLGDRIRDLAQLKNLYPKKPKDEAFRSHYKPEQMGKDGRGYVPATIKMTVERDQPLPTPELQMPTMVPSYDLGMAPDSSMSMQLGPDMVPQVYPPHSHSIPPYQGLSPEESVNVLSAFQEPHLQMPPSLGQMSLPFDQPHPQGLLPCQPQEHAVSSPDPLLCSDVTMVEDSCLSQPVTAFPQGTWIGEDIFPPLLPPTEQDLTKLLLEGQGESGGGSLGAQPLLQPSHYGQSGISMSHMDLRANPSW
Summary of the method: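 Remaining STAT6 is read as NanoBiT luminescence after 0.5 h with Nano-Glo, in HeLa LgBiT clone 4.14 cells expressing endogenous HiBiT-tagged STAT6, following 4-24 h compound incubation at 37 °C. Full degradation is set by 50 µM terfenadine, which kills the cells; degradation plotted against log compound concentration.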

[2] = test system: Eotaxin-3 (CCL26) release in human whole blood stimulated with IL-4; test: Human Whole Blood Eotaxin-3 Assay (IL-4 stimulated, inhibition of eotaxin-3 release); type: cell-based; conditions: Homo sapiens, EC50 provided for test compounds with >80% Emax, geometric mean across assay runs and batches
Procedure: This was a human whole blood assay using recombinant human Interleukin 4 to stimulate the blood and measuring the ability of the test compounds to inhibit eotaxin-3 release. The biological activities of the test compounds have been tested in human whole blood stimulated with IL-4 measuring Eotaxin-3 release. The test compounds were added to 384 well clear flat-bottom plate in a 4-fold serial dilution in triplicates using a liquid handler. Human whole blood stabilized in lithium-heparin tubes was added in a volume of 65 uL per well, resulting in a final DMSO concentration of 0.5%. The plate is incubated for 2 h at 37° C. under 5% CO2/95% air. Subsequently, 5 μL of recombinant human IL-4 (R&D Systems, cat #204-ILB) was added to the wells to a final concentration of 400 pM. The plate was incubated for 48 h at 37° C. under 5% CO2/95% air. The plate was spun down for 10 minutes at 500×g and 20 uL supernatant was harvested and transferred to a 384 well v-bottom plate using a liquid handler and stored at −20° C. until further analysis. 10 uL supernatant was used to measure the level of Eotaxin-3 (CCL26) using Human Eotaxin-3 MSD kit from Mesocsale (Cat #K251UEK-4). The assay was performed according to the manufacture instructions.
The data from the human whole blood eotaxin-3 assay is shown below for Examples 2q11, 2110, and 2c49 (where the effect in % is plotted against the test concentration in M on a log-scale).

| SMILES | DC50 [1] | EC50 [2] | Emax [1] |
| --- | --- | --- | --- |
| C[C@@H](c1cc2c(-c3ccc(N)nc3)ccnc2n1C)N1CCC(c2ccc(C(=O)N3CCn4nc(CN5CCC(c6ncc(NC7CCC(=O)NC7=O)cc6F)CC5)cc4C3)cc2)CC1 (stereo partly drawn) [Example 2q6, 3-((6-(1-((5-(4-(1-((S)-1-(4-(6-aminopyridin-3-yl)-1-methyl-1H-pyrrolo[2,3-b]pyridin-2-yl)ethyl)-piperidin-4-yl)benzoyl)-4,5,6,7-tetrahydropyrazolo[1,5-a]pyrazin-2-yl)methyl)piperidin-4-yl)-5-fluoropyridin-3-yl)amino)piperidine-2,6-dione] | 5.6 nM | 19.9 nM | – |
| CNc1ccc(-c2ccnc3c2cc([C@H](C)N2CC=C(c4c(C)cc(C(=O)N5CCC(CN6CCN(c7ccc(NC8CCC(=O)NC8=O)c(OC)c7)CC6)CC5)cc4F)CC2)n3C)cn1 (stereo partly drawn) [Example 2c46, 3-((4-(4-((1-(3-fluoro-5-methyl-4-(1-((S)-1-(1-methyl-4-(6-(methylamino)pyridin-3-yl)-1H-pyrrolo[2,3-b]pyridin-2-yl)ethyl)-1,2,3,6-tetrahydropyridin-4-yl)benzoyl)piperidin-4-yl)methyl)piperazin-1-yl)-2-methoxyphenyl)amino)piperidine-2,6-dione] | 21.4 nM | 58.4 nM | – |
| COCc1nc2ccc(-c3ccnc4c3cc([C@H](C)N3CCC(c5ccc(C(=O)N6CCC(CN7CCN(c8ccc(NC9CCC(=O)NC9=O)cc8F)CC7)CC6)cc5)CC3)n4C)cc2[nH]1 (stereo partly drawn) [Example 2c16, 3-((3-fluoro-4-(4-((1-(4-(1-((S)-1-(4-(2-(methoxymethyl)-1H-benzo[d]imidazol-6-yl)-1-methyl-1H-pyrrolo[2,3-b]pyridin-2-yl)ethyl)piperidin-4-yl)benzoyl)piperidin-4-yl)methyl)piperazin-1-yl)phenyl)amino)piperidine-2,6-dione] | 1.2 nM | 22.6 nM | – |
| C[C@@H](c1cc2c(-c3ccc(N)nc3)ccnc2n1C)N1CCC(c2ccc(C(=O)N3CCC(CN4CCC(c5ccc(NC6CCC(=O)NC6=O)cc5F)C(F)(F)C4)CC3)cc2)CC1 (stereo partly drawn) [Example 2m2, 3-((4-(1-((1-(4-(1-((S)-1-(4-(6-aminopyridin-3-yl)-1-methyl-1H-pyrrolo[2,3-b]pyridin-2-yl)-ethyl)piperidin-4-yl)benzoyl)piperidin-4-yl)methyl)-3,3-difluoropiperidin-4-yl)-3-fluorophenyl)amino)-piperidine-2,6-dione] | – | 118 nM | 60 to 70% |
| C[C@@H]1CN(c2ccc(NC3CCC(=O)NC3=O)cc2F)CCN1CC1CCN(C(=O)c2ccc(C3CCN([C@@H](C)c4cc5c(-c6ccc(N)nc6)ccnc5n4C)CC3)cc2)CC1 (stereo partly drawn) [Example 2f2, 3-((4-((R)-4-((1-(4-(1-((S)-1-(4-(6-aminopyridin-3-yl)-1-methyl-1H-pyrrolo[2,3-b]pyridin-2-yl)ethyl)piperidin-4-yl)benzoyl)piperidin-4-yl)methyl)-3-methylpiperazin-1-yl)-3-fluorophenyl)amino)-piperidine-2,6-dione] | 6.8 nM | 37 nM | – |
| C[C@@H](c1cc2c(-c3ccc(N)nc3)ccnc2n1C)N1CCC(c2ccc(C(=O)N3CCC(F)(CN4CCN(c5ccc(NC6CCC(=O)NC6=O)cc5F)CC4)CC3)cc2)CC1 (stereo partly drawn) [Example 2c23, 3-((4-(4-((1-(4-(1-((S)-1-(4-(6-aminopyridin-3-yl)-1-methyl-1H-pyrrolo[2,3-b]pyridin-2-yl)ethyl)-piperidin-4-yl)benzoyl)-4-fluoropiperidin-4-yl)methyl)piperazin-1-yl)-3-fluorophenyl)amino)-piperidine-2,6-dione] | 9.6 nM | 49.2 nM | – |
| C[C@@H](c1cc2c(-c3cnc(N)c(F)c3)ccnc2n1C)N1CCC(c2ccc(C(=O)N3CCC(CN4CCN(c5ccc(NC6CCC(=O)NC6=O)cc5F)CC4)CC3)cc2)CC1 (stereo partly drawn) [Example 2c24, 3-((4-(4-((1-(4-(1-((S)-1-(4-(6-amino-5-fluoropyridin-3-yl)-1-methyl-1H-pyrrolo[2,3-b]pyridin-2-yl)ethyl)piperidin-4-yl)benzoyl)piperidin-4-yl)methyl)piperazin-1-yl)-3-fluorophenyl)-amino)piperidine-2,6-dione] | 44.7 nM | 792 nM | – |
| C[C@@H](c1cc2c(-c3ccc(NCCO)nc3)ccnc2n1C)N1CCC(c2ccc(C(=O)N3CCC(CN4CCN(c5ccc(NC6CCC(=O)NC6=O)cc5F)CC4)CC3)cc2)CC1 (stereo partly drawn) [Example 2c26, 3-((3-fluoro-4-(4-((1-(4-(1-((S)-1-(4-(6-((2-hydroxyethyl)amino)pyridin-3-yl)-1-methyl-1H-pyrrolo[2,3-b]pyridin-2-yl)ethyl)piperidin-4-yl)benzoyl)piperidin-4-yl)methyl)piperazin-1-yl)phenyl)-amino)piperidine-2,6-dione] | – | 188 nM | 60 to 70% |
| C[C@@H](c1cc2c(-c3ccc(N)nc3)ccnc2n1C)N1CCC(c2ccc(C(=O)N3CCn4nc(CN5CCC(c6ccc(N[C@H]7CCC(=O)NC7=O)cc6F)CC5)cc4C3)cc2)CC1 (single isomer, unassigned) [Example 2q11] | 0.8 nM | 5.9 nM | – |
| Cn1c(CN2CCC(c3ccc(C(=O)N4CCn5nc(CN6CCC(c7ccc(NC8CCC(=O)NC8=O)cc7F)CC6)cc5C4)cc3)CC2)cc2c(-c3ccc(N)nc3)ccnc21 (centres unmarked) [Example 2q4, 3-((4-(1-((5-(4-(1-((4-(6-aminopyridin-3-yl)-1-methyl-1H-pyrrolo[2,3-b]pyridin-2-yl)methyl)-piperidin-4-yl)benzoyl)-4,5,6,7-tetrahydropyrazolo[1,5-a]pyrazin-2-yl)methyl)piperidin-4-yl)-3-fluoro-phenyl)amino)piperidine-2,6-dione] | – | 73.5 nM | 70 to 80% |
| C[C@@H](c1cc2c(-c3ccc(N)nc3)ccnc2n1C)N1CCC(c2ccc(C(=O)N3CCn4nc(CN5CCN(c6ncc(NC7CCC(=O)NC7=O)cc6F)CC5)cc4C3)cc2)CC1 (stereo partly drawn) [Example 2q14, 3-((6-(4-((5-(4-(1-((S)-1-(4-(6-aminopyridin-3-yl)-1-methyl-1H-pyrrolo[2,3-b]pyridin-2-yl)ethyl)-piperidin-4-yl)benzoyl)-4,5,6,7-tetrahydropyrazolo[1,5-a]pyrazin-2-yl)methyl)piperazin-1-yl)-5-fluoropyridin-3-yl)amino)piperidine-2,6-dione] | 24.7 nM | 86.7 nM | – |
| COCc1nc2cc(-c3ccnc4c3cc(CN3CCC(c5ccc(C(=O)N6CCn7nc(CN8CCC(c9ccc(NC%10CCC(=O)NC%10=O)cc9F)CC8)cc7C6)cc5)CC3)n4C)ccc2[nH]1 (centres unmarked) [Example 2q7, 3-((3-fluoro-4-(1-((5-(4-(1-((4-(2-(methoxymethyl)-1H-benzo[d]imidazol-5-yl)-1-methyl-1H-pyrrolo[2,3-b]pyridin-2-yl)methyl)piperidin-4-yl)benzoyl)-4,5,6,7-tetrahydropyrazolo[1,5-a]pyrazin-2-yl)-methyl)piperidin-4-yl)phenyl)amino)piperidine-2,6-dione] | 2.6 nM | 2.4 nM | – |
| C[C@@H](c1cc2c(-c3ccc(N)nc3)ccnc2n1C)N1CCC(c2ccc(C(=O)N3CCC(CN4CCN(c5ccc(N[C@H]6CCC(=O)NC6=O)cc5F)CC4)CC3)cc2)CC1 (single isomer, unassigned) [Example 2c19] | 10.5 nM | 109 nM | – |
